Here are results for five molecules from ChEMBL document CHEMBL1146781, “Structural differences between paroxetine and femoxetine responsible for differential inhibition of Staphylococcus aureus efflux pumps” (2004).

Test [1] deals with Staphylococcus aureus. Nature of the test: Concentration required to reduce Minimum inhibitory concentration (MIC) of Norfloxacin against Staphylococcus aureus 1199B by 8 folds. In kind it is functional, organism-based.
In test [2] the test system is Staphylococcus aureus. In words: Concentration required to reduce Minimum inhibitory concentration (MIC) of Norfloxacin against Staphylococcus aureus 1199B by 4 folds. In kind it is functional, organism-based.
In test [3] the test system is Staphylococcus aureus. In words: Minimum inhibitory concentration (MIC) against Staphylococcus aureus 1199B; Range 50 - 6.3 ug/mL. The format is functional.
In test [4] the test system is Staphylococcus aureus. In words: Minimum inhibitory concentration (MIC) against Staphylococcus aureus K2068; Range 12.5 1.6 ug/mL. The format is functional.
Test [5] relates to Staphylococcus aureus. Nature of the test: Percent inhibition of EtBr efflux against Staphylococcus aureus 1199B at 50 concentration. The format is functional.

≈ marks a conversion by molar mass, not a printed value.

On to `Fc1ccc([C@@H]2CCNC[C@H]2COc2ccc3c(c2)OCO3)cc1`, for which, in the test with Staphylococcus aureus [1], the Concentration came out at 25 µg/mL.

`COC(=O)[C@H]1[C@H]2C[C@@H]3c4[nH]c5cc(OC)ccc5c4CCN3C[C@H]2C[C@@H](OC(=O)c2cc(OC)c(OC)c(OC)c2)[C@@H]1OC` displayed a Concentration in the test with Staphylococcus aureus [2] of 20 µg/mL.

Consider `Fc1ccc([C@H]2CCNC[C@@H]2COc2ccc3c(c2)OCO3)cc1`, for which, in the test with Staphylococcus aureus [1], the Concentration was 20 µg/mL.

A word on the MIC: it is the lowest concentration found to suppress growth. Read a high MIC as a less susceptible organism. `CCn1cc(C(=O)O)c(=O)c2cc(F)c(N3CCNCC3)cc21` [NORFLOXACIN]: the values for the MIC with Staphylococcus aureus [3] and against Staphylococcus aureus [4] were 50 µg/mL (≈ 157 µM) and 12.5 µg/mL (≈ 39.1 µM), respectively.

The Inhibition is how much of the control response was suppressed. A low value points to a response near the control. In turn, `CN1CC[C@@H](c2ccc(F)cc2)[C@H](COc2ccc3c(c2)OCO3)C1` registered an Inhibition with Staphylococcus aureus [5] of approximately 50%.
